From patent US20250185651A1, “COMPOSITION FOR PESTICIDE PHYTOTOXICITY REDUCTION COMPRISING AMINO ACID” (CJ CheilJedang Corporation, priority 2021, published 2025)

Tested on: soybeans (Glycine max)
Assay: Example 1: soybean seed treatment with fluensulfone plus a single amino acid (pesticide phytotoxicity reduction)
Assay type: in vivo
Details: conclusion of Example 1; soybean seeds, 0.1% (w/v) amino acid
Method: To 10 g of seeds of soybeans (scientific name: Glycine max), fluensulfone (Nimitz, ADAMA, 40% (w/v) Fluensulfone-containing product) or fluensulfone with 1 ml of 0.1% (w/v) amino acid solution were treated as a pesticide. […] The treatment groups were as Table 1 below.
After mixing the solutions of each group well, they were sufficiently mixed for about 1 minute so that the solutions were evenly applied to soybean seeds. After than, they were taken out in a sample dish and air-drying was performed until the solutions were dried.
Soybean seeds were sown, and the germination rate was measured by counting the number of germinated seeds among all the seeds in 7 days after sowing, and this was shown in FIG. 1.
In 20 days after sowing, the length of the shoots (from the ground to the growth point) was measured with a ruler and this was shown in FIG. 2, and the photographs of the shoots and roots were shown in FIG. 3 and FIG. 4.

SMILES | phytotoxicity by fluensulfone
N[C@@H](Cc1c[nH]cn1)C(=O)O [histidine] | reduced
CC(C)C[C@H](N)C(=O)O [leucine] | reduced
N[C@@H](CCC(=O)O)C(=O)O.[Na] [sodium glutamic acid] | reduced
